According to patent US20090069408A1, “TRICYCLIC COMPOUNDS USEFUL IN TREATING IRON DISORDERS” (XENON PHARMACEUTICALS INC., priority 2007, published 2009):
Where a name gives a salt, the structure may show the parent alone.

Compound | melting point
N=C(N)SCc1cccc2c1-c1c(CSC(=N)N)cccc1C2=O (as salt: hydrobromid) [Example 1.15, (9-oxo-9H-fluorene-4,5-diyl)bis(methylene) dicarbamimidothioate dihydrobromide] | 218 to 220 °C
N=C(N)SCc1cccc2c(=O)c3cccc(CSC(=N)N)c3oc12 (as salt: hydrobromid) [Example 1.16, (9-oxo-9H-xanthene-4,5-diyl)bis(methylene) dicarbamimidothioate dihydrobromide] | > 230 °C
Cc1c2cccc(CSC(=N)N)c2nc2c(CSC(=N)N)cccc12 (as salt: hydrobromid) [Example 1.17, (9-methylacridine-4,5-diyl)bis(methylene) dicarbamimidothioate dihydrobromide] | > 270 °C (dec.)

Second part, the compound after the results:

melting point | Compound
155 to 158 °C | N=C(N)SCc1cccc2c1-c1c(cccc1CSC(=N)N)CSC2 (as salt: hydrobromid) [Example 1.19, (5,7-dihydrodibenzo[c,e]thiepine-1,11-diyl)bis(methylene) dicarbamimidothioate dihydrobromide]
> 250 °C | N=C(N)SCc1cc(F)cc2c1-c1c(CSC(=N)N)cc(F)cc1-2 (as salt: hydrobromid) [Example 5, (3,6-difluorobiphenylene-1,8-diyl)bis(methylene) dicarbamimidothioate dihydrobromide]
